According to patent publication US11603380B2 (Centre national de la recherche scientifique, priority 2018, dated 2023):
Where two headings read alike, the source gives them in different places.

How the values were obtained:
HSV-1 (KOS ACV) TK− = experiment: microbe, parasite or virus in culture; format: cell-based, herpes simplex virus 1
Vaccinia Virus = experiment: microbe, parasite or virus in culture; format: cell-based; details: read-out: EC50 Vaccinia Virus
HSV-2 (G) = experiment: microbe, parasite or virus in culture; format: cell-based, herpes simplex virus 2; details: read-out: EC50 HSV-2 (G)
[1] = tested on: human cytomegalovirus (HCMV) (AD-169); experiment: microbe, parasite or virus in culture; format: cell-based; details: read-out: EC50 HCMV (AD-169)
[2] = tested on: varicella-zoster virus (VZV) TK+ (OKA); experiment: microbe, parasite or virus in culture; format: cell-based; details: read-out: EC50 VZV TK+ (OKA)
Feline Herpes Virus = experiment: organism not typed; format: cell-based; details: read-out: EC50 Feline Herpes Virus
HEL cells = details: read-out: Cytotoxicity CC50; concentration reducing cell growth by 50%; HCMV/VZV table
[3] = tested on: herpes simplex virus 1 (HSV-1) (KOS); experiment: microbe, parasite or virus in culture; format: cell-based; details: read-out: EC50 HSV-1 (KOS)
[4] = tested on: human cytomegalovirus (HCMV) (Davis); experiment: microbe, parasite or virus in culture; format: cell-based; details: read-out: EC50 HCMV (Davis)
in vitro = details: human
[5] = tested on: varicella-zoster virus (VZV) TK− (07/1); experiment: microbe, parasite or virus in culture; format: cell-based; details: Human alphaherpesvirus 3, HEL, read-out: EC50 VZV TK− (07/1)
[6] = tested on: HSV-1, HSV-2, HSV-1 (TK−), VV, FHV; format: cell-based
[7] = read-out: EC50 HSV-1 (KOS ACV) TK−
[8] = Human alphaherpesvirus 1, read-out: EC50 HSV-1 (KOS ACV) TK−
[9] = Human betaherpesvirus 5, AD169, HEL

| Molecule | EC50 (Feline Herpes Virus) [µM] | Cytotoxicity MCC (HEL cell cultures; human) [µM] | EC50 (Vaccinia Virus; Orthopoxvirus vaccinia, HEL) [µM] | EC50 (HSV-2 (G); Human alphaherpesvirus 2, HEL) [µM] | EC50 [5] [µM] | EC50 (HSV-1 (KOS ACV) TK−; [8]) [µM] | EC50 [1, 9] [µM] | EC50 ([2]; Human alphaherpesvirus 3, HEL) [µM] | EC50 ([3]; Human alphaherpesvirus 1, HEL) [µM] | EC50 ([4]; Human betaherpesvirus 5, HEL) [µM] | CC50 at 3 days (in vitro) [µM] | further results |
| --- | --- | --- | --- | --- | --- | --- | --- | --- | --- | --- | --- | --- |
| [(E/Z)-2-[[2-[bis(tert-butoxycarbonyl)amino]-6-methoxy-pyrimidin-4-yl]oxymethyl]-4-[3-hexadecoxypropoxy(isopropoxycarbonyloxymethoxy)phosphoryl]but-2′-enyl]acetate [Compound (7)] | > 100 |  |  |  |  |  |  |  |  |  |  | Cytotoxicity MCC (HEL cell cultures): 100 µM; EC50 (HSV-1 (KOS ACV) TK−; [7]): > 100 µM; EC50 (Vaccinia Virus): > 100 µM; EC50 (HSV-2 (G)): > 100 µM; EC50 [1]: > 20 µM; EC50 [2]: > 20 µM; CC50 (HEL cells): 1.29 µM; EC50 [3]: > 100 µM; EC50 [4]: 8.94 µM |
| Nc1nc(O)c2ncn(COC(CO)CO)c2n1 [Ganciclovir, reference compound] | 1.4 | >100 | > 100 | 0.06 |  |  |  |  |  |  |  | CC50 (in vitro; Cytotoxicity CC50): > 100 µM |
| CC(C)(C)C(=O)OCOP(=O)(/C=C/COc1cc(N)nc(N)n1)OCOC(=O)C(C)(C)C [Compound (9), [[(E)-3-(2,6-diaminopyrimidin-4-yl)oxyprop-1-enyl]-(2,2-dimethyl-propanoyloxymethoxy)phosphoryl]oxymethyl 2,2-dimethylpropanoate] | > 100 | >100 | > 100 | > 100 | > 100 | > 100 | > 100 | 76.5 | > 100 | > 100 |  |  |
| CC(=O)OC/C(=C\CP(=O)(OCOC(=O)OC(C)C)OCOC(=O)OC(C)C)COc1cc(N)nc(N)n1 [Compound (6), [(Z)-4-[bis(isopropoxycarbonyloxymethoxy)phosphoryl]-2-[(2,6-diaminopyrimidin-4-yl)oxymethyl]but-2-enyl]acetate] | > 100 | >100 | 4.1 ± 2.4 | 0.35 ± 0.05 | 0.22 | 0.4 | > 20 | 0.089 | 0.6 ± 0.2 | 49.7 | 15.4 |  |
| CC(C)OC(=O)OCOP(=O)(C/C=C/COc1cc(N)nc(N)n1)OCOC(=O)OC(C)C [Compound (3), [[(E)-4-(2,6-diaminopyrimidin-4-yl)oxybut-2′-enyl]-(isopropoxycarbonyloxymethoxy)phosphoryl]oxymethyl isopropyl carbonate] | > 100 | >100 | > 100 | 1.85 | 1.25 | 5.75 | 44.7 | 0.86 | 3.75 | 36.6 | 99 | activity level against HSV-1, HSV-2, HSV-1 (TK−), VV, FHV [6]: micromolar and sub-micromolar activities |
| CC(=O)OCC(=CCP(=O)(OCOC(=O)C(C)(C)C)OCOC(=O)C(C)(C)C)COc1cc(N)nc(N)n1 (mixture of isomers) [Compound (4), [[(Z/E)-3-(acetoxymethyl)-4-(2,6-diaminopyrimidin-4-yl)oxy-but-2′-enyl]-(2,2-dimethylpropanoyloxymethoxy)phosphoryl]oxymethyl 2,2-dimethylpropanoate] | > 100 | 100 | 2.9 | 1.1 | 0.12 | 0.6 | 8.56 | 0.14 | 0.6 | 4.06 | 2.02 | activity level against HSV-1, HSV-2, HSV-1 (TK−), VV, FHV [6]: micromolar and sub-micromolar activities |
| CCCCCCCCCCCCCCCCOCCCOP(=O)(C/C=C/COc1cc(N)nc(N)n1)OCOC(=O)OC(C)C (stereo not shown) [Compound (2), [[(E)-4-(2,6-diaminopyrimidin-4-yl)oxybut-2′-enyl]-(3-hexadecoxypropoxy)phosphoryl]oxymethyl isopropyl carbonate] | > 100 |  |  |  |  |  |  |  |  |  |  | Cytotoxicity MCC (HEL cell cultures): >100 µM; EC50 (HSV-1 (KOS ACV) TK−; [7]): > 100 µM; EC50 (Vaccinia Virus): > 100 µM; EC50 (HSV-2 (G)): > 100 µM; EC50 [1]: 7.08 µM; EC50 [2]: 0.17 µM; CC50 (HEL cells): 14.5 µM; EC50 [3]: > 100 µM; EC50 [4]: 7.26 µM |
| CC(C)(C)C(=O)OCOP(=O)(CC/C=C/COc1cc(N)nc(N)n1)OCOC(=O)C(C)(C)C [Compound (10), [[(E)-5-(2,6-diaminopyrimidin-4-yl)oxypent-3-enyl]-(2,2-dimethyl-propanoyloxymethoxy)phosphoryl]oxymethyl 2,2-dimethylpropanoate] | > 100 | 100 | > 100 | > 100 | 24.5 | > 100 | > 100 | 34.2 | > 100 | > 100 |  |  |
| O=c1[nH]c(=O)n([C@H]2C[C@H](O)[C@@H](CO)O2)cc1/C=C/Br [Brivudine, reference compound] |  | >100 | 22 |  | 117 |  | 0.08 | 0.01 |  | 250 |  | CC50 (in vitro): 339 µM; CC50 (in vitro; Cytotoxicity CC50): > 100 µM |
| CC(C)(C)C(=O)OCOP(=O)(C/C=C/COc1cc(N)nc(N)n1)OCOC(=O)C(C)(C)C [Compound (1), [[(E)-4-(2,6-diaminopyrimidin-4-yl)oxybut-2′-enyl]-(2,2-dimethylpropanoyloxymethoxy)phosphoryl]oxymethyl 2,2-dimethylpropanoate] | > 100 | >100 | 32.5 | 13.4 | 2.32 | 13.4 | 44.7 | 2.04 | 13.4 | 44.7 | 5.1 | activity level against HSV-1, HSV-2, HSV-1 (TK−), VV, FHV [6]: micromolar and sub-micromolar activities |
| CCCCCCCCCCCCCCCCOCCCOP(=O)(CC=C(COC(C)=O)COc1cc(Cl)nc(N)n1)OCOC(=O)OC(C)C (mixture of isomers) [Compound (8), [(E/Z)-2′-[(2-amino-6-chloro-pyrimidin-4-yl)oxymethyl]-4-[3-hexadecoxypropoxy(isopropoxycarbonyloxymethoxy)phosphoryl]but-2′-enyl]acetate] | > 100 |  |  |  |  |  |  |  |  |  |  | Cytotoxicity MCC (HEL cell cultures): 100 µM; EC50 (HSV-1 (KOS ACV) TK−; [7]): > 100 µM; EC50 (Vaccinia Virus): > 100 µM; EC50 (HSV-2 (G)): > 100 µM; EC50 [1]: > 20 µM; EC50 [2]: 48.9 µM; CC50 (HEL cells): 5.01 µM; EC50 [3]: > 100 µM; EC50 [4]: 13.1 µM |
| Nc1nc2c(ncn2COCCO)c(=O)[nH]1 [Acyclovir, reference compound] |  |  | > 100 |  |  |  | 0.4 |  |  | 250 |  | CC50 (in vitro): 134 ± 10 µM; CC50 (in vitro; Cytotoxicity CC50): > 100 µM |
| CC(C)(C)C(=O)OCOP(=O)(CCCCOc1cc(N)nc(N)n1)OCOC(=O)C(C)(C)C [Compound (12)] | > 100 | >100 | > 100 | 39.5 | 11 | 42 | 44.7 | 11.3 | 39.5 | > 20 | 54.9 |  |
| C/C(=C\CP(=O)(OCOC(=O)C(C)(C)C)OCOC(=O)C(C)(C)C)COc1cc(N)nc(N)n1 [Compound (11), [[(E)-4-(2,6-diaminopyrimidin-4-yl)oxy-3-methyl-but-2-enyl]-(2,2-dimethyl-propanoyloxymethoxy)phosphoryl]oxymethyl 2,2-dimethylpropanoate] | > 100 | >100 | 49.3 | > 100 | 49.3 | 51.5 | > 100 | 51.5 | > 100 | > 100 |  |  |
